Source: patent publication US8278473B2, “Alpha, beta-unsaturated imidate compound and pesticidal composition containing the same” (Sumitomo Chemical Company, Limited, priority 2007, dated 2012)

test system: Haemaphysalis longicornis; assay: Test Example 10: Haemaphysalis longicornis, treated filter paper pouch; format: in vivo; conditions: 0.5 mg compound on filter paper 5×10 cm; non-blood sucking nymphal ticks; after 2 days
Method: In 1 mL of acetone, 0.5 mg of any one of the present compounds 1 to 48 was dissolved, and the solution was spread uniformly on one side of a filter paper (TOYO No. 2; 5×10 cm). After dried, the filter paper was folded into two, and the sides were clipped to make a pouch. Into the pouch, tested ticks (Haemaphysalis longicornis, non-blood sucking nymphal ticks, 10 ticks in a group) were placed. The pouch was clipped and sealed. After 2 days, the number of dead ticks was counted.

| SMILES | death rate [%] |
| --- | --- |
| CCOc1cccc(OC(=Nc2ccc(C)cc2)C(C)=COc2ccccc2OC)c1 [Compound 243, 3-ethoxyphenyl 3-(2-methoxyphenyloxy)-2-methyl-N-(4-methylphenyl)-2-propenimidate] | 100 |
| COc1ccc(OC=C(C)C(=Nc2ccc(C)cc2)Oc2ccc(C)cc2)cc1 [Compound 271, 4-methylphenyl 3-(4-methoxyphenyloxy)-2-methyl-N-(4-methylphenyl)-2-propenimidate] | 100 |
| CC(=COc1cccc(C)c1)C(=Nc1ccccc1)Oc1cccc(C)c1 [Compound 176, 3-methylphenyl 2-methyl-3-(3-methylphenyloxy)-N-phenyl-2-propenimidate] | 100 |
| CC(=COc1ccc(Oc2ccccc2)cc1)C(=Nc1ccccc1)Oc1ccccc1 [Compound 291, phenyl 2-methyl-3-(4-phenoxyphenyloxy)-N-phenyl-2-propenimidate] | 100 |
| CCc1ccc(OC=C(C)C(=Nc2ccccc2)Oc2ccccc2)cc1 [Compound 229, phenyl 3-(4-ethylphenyloxy)-2-methyl-N-phenyl-2-propenimidate] | 100 |
| COc1cccc(OC(=Nc2ccc(C)cc2)C(C)=COc2ccccc2OC)c1 [Compound 242, 3-methoxyphenyl 3-(2-methoxyphenyloxy)-2-methyl-N-(4-methylphenyl)-2-propenimidate] | 100 |
| CCc1cccc(OC(=Nc2ccccc2)C(C)=COc2ccccc2OC)c1 [Compound 234, 3-ethylphenyl 3-(2-methoxyphenyloxy)-2-methyl-N-phenyl-2-propenimidate] | 100 |
| CCc1cccc(OC(=Nc2ccc(C)c(C)c2)C(C)=COc2ccc(OC)cc2)c1 [Compound 284, 3-ethylphenyl N-(3,4-dimethylphenyl)-3-(4-methoxyphenyloxy)-2-methyl-2-propenimidate] | 100 |
| COc1ccc(N=C(Oc2cccc(C)c2)C(C)=COc2ccccc2OC)cc1 [Compound 246, 3-methylphenyl N-(4-methoxyphenyl)-3-(2-methoxyphenyloxy)-2-methyl-2-propenimidate] | 100 |
| CC(=COc1ccc(C)cc1)C(=Nc1ccc(C)cc1)Oc1cccc(C)c1 [Compound 210, 3-methylphenyl 2-methyl-N-(4-methylphenyl)-3-(4-methylphenyloxy)-2-propenimidate] | 100 |
| CC(=COc1ccc(Cl)cc1)C(=Nc1ccccc1)Oc1ccccc1 [Compound 231, phenyl 3-(4-chlorophenyloxy)-2-methyl-N-phenyl-2-propenimidate] | 100 |
| COc1cccc(OC(=Nc2ccccc2)C(C)=COc2ccccc2OC)c1 [Compound 236, 3-methoxyphenyl 3-(2-methoxyphenyloxy)-2-methyl-N-phenyl-2-propenimidate] | 100 |
| COc1ccc(OC(=Nc2ccccc2)C(C)=COc2ccc(C)cc2)cc1 [Compound 205, 4-methoxyphenyl 2-methyl-3-(4-methylphenyloxy)-N-phenyl-2-propenimidate] | 100 |
| COc1ccc(OC=C(C)C(=Nc2ccc(C)cc2)Oc2cc(C)cc(C)c2)cc1 [Compound 275, 3,5-dimethylphenyl 3-(4-methoxyphenyloxy)-2-methyl-N-(4-methylphenyl)-2-propenimidate] | 100 |
| CC(=COc1ccc(C)cc1)C(=Nc1ccc(C)cc1)Oc1ccc(F)cc1 [Compound 215, 4-fluorophenyl 2-methyl-N-(4-methylphenyl)-3-(4-methylphenyloxy)-2-propenimidate] | 100 |
| COc1ccc(N=C(Oc2cccc(C)c2)C(C)=COc2ccc(C)cc2)cc1 [Compound 225, 3-methylphenyl N-(4-methoxyphenyl)-2-methyl-3-(4-methylphenyloxy)-2-propenimidate] | 100 |

| SMILES | death rate [%] |
| --- | --- |
| CCCC(=COc1ccccc1)C(=Nc1ccccc1)Oc1ccccc1 [Compound 322, phenyl 3-phenoxy-N-phenyl-2-n-propyl-2-propenimidate] | 100 |
| COc1ccccc1OC=C(C)C(=Nc1ccc(C)cc1)Oc1cccc(C)c1 [Compound 240, 3-methylphenyl 3-(2-methoxyphenyloxy)-2-methyl-N-(4-methylphenyl)-2-propenimidate] | 100 |
| COc1ccccc1OC=C(C)C(=Nc1ccc(C)c(C)c1)Oc1cccc(C)c1 [Compound 252, 3-methylphenyl N-(3,4-dimethylphenyl)-3-(2-methoxyphenyloxy)-2-methyl-2-propenimidate] | 100 |
| CC(=COc1ccc(C)cc1)C(=Nc1ccccc1)Oc1cccc(C)c1 [Compound 195, 3-methylphenyl 2-methyl-3-(4-methylphenyloxy)-N-phenyl-2-propenimidate] | 100 |
| COc1ccc(OC=C(C)C(=Nc2ccc(C)cc2)Oc2cccc(OC)c2)cc1 [Compound 273, 3-methoxyphenyl 3-(4-methoxyphenyloxy)-2-methyl-N-(4-methylphenyl)-2-propenimidate] | 100 |
| CC(=COc1ccc(C)c(C)c1)C(=Nc1ccccc1)Oc1ccccc1 [Compound 292, phenyl 3-(3,4-dimethylphenyloxy)-2-methyl-N-phenyl-2-propenimidate] | 100 |
| CCc1cccc(OC(=Nc2ccc(C)cc2)C(C)=COc2ccccc2OC)c1 [Compound 241, 3-ethylphenyl 3-(2-methoxyphenyloxy)-2-methyl-N-(4-methylphenyl)-2-propenimidate] | 100 |
| COc1ccc(OC(=Nc2ccc(C)cc2)C(C)=COc2ccc(C)cc2)cc1 [Compound 221, 4-methoxyphenyl 2-methyl-N-(4-methylphenyl)-3-(4-methylphenyloxy)-2-propenimidate] | 100 |
| CCc1cccc(OC(=Nc2ccc(C)cc2)C(C)=COc2ccc(OC)cc2)c1 [Compound 272, 3-ethylphenyl 3-(4-methoxyphenyloxy)-2-methyl-N-(4-methylphenyl)-2-propenimidate] | 100 |
| COc1ccccc1OC=C(C)C(=Nc1ccc(C)cc1)Oc1cc(C)cc(C)c1 [Compound 244, 3,5-dimethylphenyl 3-(2-methoxyphenyloxy)-2-methyl-N-(4-methylphenyl)-2-propenimidate] | 100 |
| COc1ccc(OC=C(C)C(=Nc2ccc(C)cc2)Oc2cccc(C)c2)cc1 [Compound 270, 3-methylphenyl 3-(4-methoxyphenyloxy)-2-methyl-N-(4-methylphenyl)-2-propenimidate] | 100 |
| COc1cccc(OC=C(C)C(=Nc2ccc(C)cc2)Oc2cccc(C)c2)c1 [Compound 261, 3-methylphenyl 3-(3-methoxyphenyloxy)-2-methyl-N-(4-methylphenyl)-2-propenimidate] | 100 |
| COc1ccc(N=C(Oc2ccccc2)C(C)=COc2cccc(C)c2)cc1 [Compound 188, phenyl N-(4-methoxyphenyl)-2-methyl-3-(3-methylphenyloxy)-2-propenimidate] | 100 |
| COc1cccc(OC(=Nc2ccc(C)cc2)C(C)=COc2ccc(C)cc2)c1 [Compound 220, 3-methoxyphenyl 2-methyl-N-(4-methylphenyl)-3-(4-methylphenyloxy)-2-propenimidate] | 100 |
| CCOc1cccc(OC(=Nc2ccccc2)C(C)=COc2cccc(C)c2)c1 [Compound 179, 3-ethoxyphenyl 2-methyl-3-(3-methylphenyloxy)-N-phenyl-2-propenimidate] | 100 |
